{
  "source": "patent US8333970B2",
  "about": "“Methods of monitoring the efficacy of anti-CD40 antibodies in treating a subject having an inflammatory or autoimmune disease” (Novartis AG, priority 2005, dated 2012)",
  "key": {"[1]": {"tested_on": "B cells from normal human subjects", "assay": "In vitro proliferation of normal human B cells / lymphocytes", "assay_type": "cell-based", "description": "(§1) 2, 2000, and PCT International Application No. PCT/US01/30857, also titled “Human Anti-CD40 Antibodies,” filed Oct. 2, 2001, both of which are herein incorporated by reference in their entirety.\n4, 2003, Nov. 26, 2003, and Apr. 27, 2004, and assigned U.S. Patent Application Nos. 60/517,337 , 60/525,579, and 60/565,710, respectively, and International Patent Application No. PCT/US2004/037152, also entitled “Antagonist Anti-CD40 Monoclonal Antibodies and Methods for Their Use,” filed Nov. 4, 2004; the contents of each of which are herein incorporated by reference in their entirety."}, "normal B cells": {"tested_on": "normal B cells", "assay": "CD40L-induced cytokine secretion, Meso Scale Discovery multi-array", "assay_type": "cell-based, human", "details": "24 hours; for % inhibition of CD40L-induced MCP-1 secretion / % inhibition of CD40L-induced MIP-1β secretion / % inhibition of CD40L-induced hIL-6 secretion / % inhibition of CD40L-induced hIL-8 secretion / % inhibition of CD40L-induced hIL-10 secretion / % inhibition of CD40L-induced hTNF-α secretion: normal B cells", "protocol": "(§2) Cells (1×10^5 cells per well) were cultured in a 96-well plate in the presence or absence of CD40L ([…], formaldehyde fixed CHO cells, 2×10^5 per well). […] Production of hIL-6, hIL-8, hIL-10, hTNF-α; hGM-CSF, hIL-1b, hIL-12p70, MCP-1, and MIP-1β beta was measured by Meso Scale Discovery® multi-array system (Meso Scale Discovery, Gaithersburg, Md.)."}, "monocytes": {"tested_on": "monocytes", "assay": "CD40L-induced cytokine secretion, Meso Scale Discovery multi-array", "assay_type": "cell-based, human", "details": "24 hours", "protocol": "as §2"}, "cell-surface CD40": {"target": "cell-surface CD40 (Homo sapiens, UniProt P25942)", "sequence (P25942 21-277)": "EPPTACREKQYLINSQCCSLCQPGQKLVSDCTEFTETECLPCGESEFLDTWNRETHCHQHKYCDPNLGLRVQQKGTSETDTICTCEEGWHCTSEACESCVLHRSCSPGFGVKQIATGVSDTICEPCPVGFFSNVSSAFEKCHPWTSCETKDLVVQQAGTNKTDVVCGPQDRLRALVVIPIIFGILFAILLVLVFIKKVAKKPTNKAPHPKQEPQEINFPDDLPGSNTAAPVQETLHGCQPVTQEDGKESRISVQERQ", "assay": "Flow cytometric (FACS) assay of CD40 binding and CD40-ligand blocking", "description": "as §1"}},
  "note": "“Also recorded” adds a separate entry of the source.",
  "data": [
    {"substance": "CHIR-12.12: fully human anti-CD40 monoclonal antibody of the IgG1 isotype, hybridoma 153.8E2.D10.D6.12.12, ATCC PTA-5543, SEQ ID NO:2 and 4", "values": [
      {"measurement": "CD40L-induced lymphocyte proliferation", "setting": "[1]; human peripheral blood lymphocytes", "value": "inhibits CD40L-induced lymphocyte proliferation"},
      {"measurement": "effect on CD40 ligand-mediated proliferation of normal B cells", "setting": "[1]; in vitro", "value": "act as antagonist anti-CD40 antibodies; also recorded: inhibit in vitro CD40 ligand-mediated proliferation of normal B cells"},
      {"measurement": "induction of proliferation of human lymphocytes (agonist activity)", "setting": "[1]; lymphocytes from normal subjects, antibody alone", "value": "do not induce strong proliferation; also recorded: does not induce the proliferation of human peripheral blood lymphocytes"},
      {"measurement": "cytokine production with antibody alone (agonistic activity)", "setting": "normal B cells; absence of CD40L, 10 μg/ml", "value": "did not produce any of the cytokines above background levels"},
      {"measurement": "CD40L-induced production of all cytokines", "setting": "normal B cells; normal B cells (n=3), 10 μg/ml", "value": "inhibited production of all cytokines"},
      {"measurement": "% inhibition of CD40L-induced MCP-1 secretion", "setting": "normal B cells; Donor 1, 10 μg/ml", "value": 55.3, "unit": "%"},
      {"measurement": "% inhibition of CD40L-induced MIP-1β secretion", "setting": "normal B cells; Donor 1, 10 μg/ml", "value": 54.4, "unit": "%"},
      {"measurement": "% inhibition of CD40L-induced hIL-6 secretion", "setting": "normal B cells; Donor 1, 10 μg/ml", "value": 92.2, "unit": "%"},
      {"measurement": "% inhibition of CD40L-induced hIL-8 secretion", "setting": "normal B cells; Donor 1, 10 μg/ml", "value": 98.2, "unit": "%"},
      {"measurement": "% inhibition of CD40L-induced hIL-10 secretion", "setting": "normal B cells; Donor 1, 10 μg/ml", "value": 90.5, "unit": "%"},
      {"measurement": "% inhibition of CD40L-induced hTNF-α secretion", "setting": "normal B cells; Donor 1, 10 μg/ml", "value": 92.8, "unit": "%"},
      {"measurement": "% inhibition of CD40L-induced MIP-1β secretion", "setting": "normal B cells; Donor 2, 10 μg/ml", "value": 92, "unit": "%"},
      {"measurement": "% inhibition of CD40L-induced hIL-6 secretion", "setting": "normal B cells; Donor 2, 10 μg/ml", "value": 99.9, "unit": "%"},
      {"measurement": "% inhibition of CD40L-induced hIL-8 secretion", "setting": "normal B cells; Donor 2, 10 μg/ml", "value": 84.7, "unit": "%"},
      {"measurement": "% inhibition of CD40L-induced hTNF-α secretion", "setting": "normal B cells; Donor 2, 10 μg/ml", "value": 97.4, "unit": "%"},
      {"measurement": "% inhibition of CD40L-induced MCP-1 secretion", "setting": "normal B cells; Donor 3, 10 μg/ml", "value": 25.7, "unit": "%"},
      {"measurement": "% inhibition of CD40L-induced MIP-1β secretion", "setting": "normal B cells; Donor 3, 10 μg/ml", "value": 92.5, "unit": "%"},
      {"measurement": "% inhibition of CD40L-induced hIL-6 secretion", "setting": "normal B cells; Donor 3, 10 μg/ml", "value": 99.3, "unit": "%"},
      {"measurement": "% inhibition of CD40L-induced hIL-8 secretion", "setting": "normal B cells; Donor 3, 10 μg/ml", "value": 99.5, "unit": "%"},
      {"measurement": "% inhibition of CD40L-induced hIL-10 secretion", "setting": "normal B cells; Donor 3, 10 μg/ml", "value": 94.4, "unit": "%"},
      {"measurement": "% inhibition of CD40L-induced hTNF-α secretion", "setting": "normal B cells; Donor 3, 10 μg/ml", "value": 98.5, "unit": "%"},
      {"measurement": "CD40L-induced production of hIL-10, hTNF-α, hIL-8, hIL-6, MCP-1 and MIP-1β", "setting": "monocytes; monocytes (n=1), 10 μg/ml", "value": "inhibited CD40L-induced monocyte production"},
      {"measurement": "% inhibition of CD40L-induced MCP-1 secretion", "setting": "monocytes; monocytes, Donor 1, 10 μg/ml", "value": 92.6, "unit": "%"},
      {"measurement": "% inhibition of CD40L-induced MIP-1β secretion", "setting": "monocytes; monocytes, Donor 1, 10 μg/ml", "value": 32.4, "unit": "%"},
      {"measurement": "% inhibition of CD40L-induced hIL-6 secretion", "setting": "monocytes; monocytes, Donor 1, 10 μg/ml", "value": 64.9, "unit": "%"},
      {"measurement": "% inhibition of CD40L-induced hIL-8 secretion", "setting": "monocytes; monocytes, Donor 1, 10 μg/ml", "value": 43.7, "unit": "%"},
      {"measurement": "% inhibition of CD40L-induced hIL-10 secretion", "setting": "monocytes; monocytes, Donor 1, 10 μg/ml", "value": 58.5, "unit": "%"},
      {"measurement": "% inhibition of CD40L-induced hTNF-α secretion", "setting": "monocytes; monocytes, Donor 1, 10 μg/ml", "value": 60.1, "unit": "%"},
      {"measurement": "specific binding to human CD40", "setting": "cell-surface CD40; FACS analysis", "value": "bind specifically to human CD40"},
      {"measurement": "displacement of CD40-ligand pre-bound to cell surface CD40", "setting": "cell-surface CD40; flow cytometric assays", "value": "displace the pre-bound CD40-ligand; also recorded: can compete off CD40-ligand pre-bound to cell surface CD40"},
      {"measurement": "prevention of CD40-ligand binding to cell-surface CD40", "setting": "cell-surface CD40; flow cytometric assays", "value": "prevent the binding of CD40-ligand to cell-surface CD40; also recorded: can prevent CD40-ligand binding"}
    ]}
  ]
}
